Data taken from paper PMC6242746 (Chemistry, an Asian journal, 2018).

Experiments:
HeLa cells = experiment: Percentage of peptide remained in HeLa cell lysate; type: in vitro ADME; conditions: 200 μM alone or with 100 nM BTZ, 1 h; cell lysate or culture medium
[1] = Self-assembly: hydrogelation and nanofiber formation; type: physicochemical; conditions: 500 μM, TEM images

Row | Degradation in HeLa cells compared with 1 (in words) (HeLa cells) | Nanofiber formation (TEM) [1] | Substance
1 | degrade slower than 1 | can form nanofibers | Nap-Phe-Phe-Asn [compound 2]
2 | degrade slower than 1 | can form nanofibers | Nap-Phe-Phe-Glu [compound 3]
